tested on: snap bean gray mold fungus (Botrytis cinerea); test: Test on Kidney Bean Gray Mold Control; format: in vivo; conditions: 50 ppm active ingredient, cut Kidney bean flowers (Nagauzura) dipped, spores sprayed, placed on detached leaves, 7 days at 20° C., high humidity
Description: Now, explanation is made on how the compounds according to the present invention are effective as an active ingredient of a fungicide for controlling various plant diseases with reference to Test examples described later. In the Test Examples, the control efficacy is determined by visually checking the infested state of the test plants at the time of observation, namely, checking the damage to the host plants and the developing state of the disease-causing fungus appeared on leaves, stems, etc. of the test plants, compared to the control test plants which are healthy. Flowers of Kidney bean (variety; Nagauzura) grown in a flat vessel for culturing seedlings are cut, and the cut flowers were dipped into a solution prepared by diluting the emulsifiable concentrate prepared for the compound of the present invention at a concentration of 50 ppm based on the active ingredient. After the dipping, the flowers were dried at a room temperature. Then, spore solution of snap bean gray mold fungus (Botrytis cinerea) was sprayed to the flowers. The flowers sprayed with spores of the gray mold fungus were placed on the leaves which were detached from healthy Kidney bean plants, and those leaves were placed in a room being maintained at 20° C. and high humidity with repeated lighting of 12 hours intervals, and the Kidney bean leaves were incubated in the room for 7 days. Then, the infestation degree by the fungus on the leaves was checked in comparison to the control healthy leaves to determine the control efficacy. […] Note that the compound numbers in the following correspond to the same compound numbers in the Table 1. Compound Nos. 1, 3, 6, 7, 11, 12, 13, 14, 15, 18, 20, 21, 22, 23, 25, 26, 27, 29, 36, 48, 49, 192, 194, 195, 196, 198, 201, 203, 204, 207, 208, 209, 210, 213, 216, 219, 220, 222, 223, 224, 225, 227, 228, 229, 231, 233, 234, 235, 236, 237, 239, 240, 242

Row | Compound | control performance (control efficacy)
1 | COc1cc(Cl)cc(OC)c1CON=Cc1cc(C)cc(C)n1 [compound 213] | excellent control performance
2 | COc1cc(F)cc(OC)c1CON=Cc1cc(C)cc(C)n1 [compound 216] | excellent control performance
3 | COc1cccc(F)c1CON=Cc1cc(Cl)cc(C)n1 [compound 220] | excellent control performance
4 | COc1cc(F)c(CON=Cc2cc(C)cc(C)n2)c(OC)c1 [compound 224] | excellent control performance
5 | COc1cccc(OC(C)=O)c1CON=Cc1cc(C)cc(C)n1 [compound 227] | excellent control performance
6 | COc1cccc(OC)c1CON=Cc1cccc(C)n1 [compound 228] | excellent control performance
7 | COc1cccc(OC)c1CON=Cc1cc(Br)cc(C)n1 [compound 229] | excellent control performance
8 | COc1cccc(OC)c1CON=Cc1ccccn1 [compound 231] | excellent control performance
9 | COc1cccc(OC)c1CON=Cc1cc(C)cc(C)n1.Cl [compound 236] | excellent control performance
10 | COCc1cccc(OC)c1CON=Cc1cc(C)cc(C)n1 [compound 237] | excellent control performance
11 | COc1ccc(C)c(OC)c1CON=Cc1cc(C)cc(C)n1 [compound 240] | excellent control performance
12 | COc1ccc(Cl)c(OC)c1CON=Cc1cc(C)cc(C)n1 [compound 242] | excellent control performance
